Assay results from patent publication EP1799816B1, “NOVEL LACCASE ENZYME AND USE THEREOF” (AB Enzymes Oy, priority 2004, dated 2006).
Several values for one entry are separate records, joined by “and”; a condition that tells them apart may be missing. Equal entries are not always repeated. Where two headings read alike, the source gives them in different places. One block for each molecule: values may come before it.

Assays:
[1] = test system: recombinant Thielavia arenaria TaLcc1 laccase (rTaLcc1); format: biochemical
Method: Table 2. Inhibition of the Thielavia wild type laccase.
The inhibition effect of different compounds on the activity of the recombinant TaLcc1 laccase was determined as described in Example 2. Table 7. Inhibition of the recombinant Thielavia arenaria TaLcc1 laccase (rTaLcc1) activity by various compounds.

[2] = test system: Thielavia wild type laccase
[3] = Sodium hypochlorite bleaching of different types of denim, Wascator, colour of face side of denim; conditions: 25 ml/l 10 % NaOCl, 15 min, 40°C, pH 11.5 - 11.9
Method: Different types of demin were treated with a TaLcc1 laccase product from Trichoderma strain RF5597 and DeniLite II Base from Novozymes and the results obtained were compared to hypochlorite bleaching. All together 27 pieces of different kinds of denim (whole jeans), which had been previously washed with cellulase after desizing to different abrasion levels or had been only desized with ECOSTONE® A200 (60°C, 10 min), were collected for the test (Table 15). The jeans were made of Indigo dyed denim, except the English jeans contained Indigo dyed denim with sulphur bottom. Jeans were cut in such a way that pieces from the same pair of jeans could be used for all tests.
The sodium hypochlorite bleaching was performed with Electrolux's Wascator FOM 71 CLS washer extractor using denim obtained from the same jeans as in laccase treatments under conditions described in Table 17. Sodium hydroxide was added before adding 25 ml/l of 10 % sodium hypochlorite solution (Klorite Forte, Farmos Oy) to keep the pH above 10.5 during the treatment. After draining the bleach liquor, there was one 2 minutes rinsing step with the liquor ratio of 1:20 before dechlorinating with sodium thiosulphate. After dechlorinating the denim samples were rinsed 3 times for 2 minutes with the liquor ratio of 1:20. The fabrics were dried in a tumbler. Table 17. The process parameters used in the sodium hypochlorite bleaching and dechlorinating.
The bleaching effect was evaluated by measuring the colour as reflectance values as in Example 7. […] Different looks were obtained depending on the type of the denim and cellulase treatment used. "Sulphur-bottom type" denim was the most difficult to bleach. Table 18. Colour measurements of the face side of denim treated with TaLcc1 laccase preparation (RF5597). L* indicates lightness, -b* is the blue direction, +b* is the yellow direction.

[4] = substrate: COc1cc(C=NN=Cc2cc(OC)c(O)c(OC)c2)cc(OC)c1O; test: Kinetic parameters (Km, kcat, kcat/Km) on laccase substrates; format: biochemical, Melanocarpus albomyces; conditions: other: substrate Syringaldazin, 25°C, buffer unclear, comparison enzyme
Method: (§1) On syringaldazin and DMP 40 mM MES buffer, pH 6 and 25 mM succinate bluffer, All activity assays were carried out at 25°C. Kinetic parameters were estimated by a nonlinear regression curve fit. The values were compared to those of Melanocarpus albomyces MaL, laccase.

[5] = substrate: COc1cccc(OC)c1O; test: as above; format: biochemical, Melanocarpus albomyces; conditions: other: substrate DMP, 25°C, buffer unclear, comparison enzyme
Method: as §1

[6] = sample B1, Basic Jeans, Ecostone P1250
[7] = sample E1, English jeans (sulphur bottom), desized only
[8] = sample E2, English jeans (sulphur bottom), Ecostone NP2000
[9] = sample E3, English jeans (sulphur bottom), Rocksoft NCE-EA
[10] = sample E4, English jeans (sulphur bottom), Rocksoft NCE-2X
[11] = sample E5, English jeans (sulphur bottom), Ecostone L900
[12] = sample E6, English jeans (sulphur bottom), Ecostone L900
[13] = sample E7, English jeans (sulphur bottom), Ecostone L900
[14] = sample L1, Lee Cooper jeans, desized only
[15] = sample L2, Lee Cooper jeans, Ecostone L
[16] = sample L3, Lee Cooper jeans, Biotouch C29
[17] = sample L4, Lee Cooper jeans, Ecostone L
[18] = sample L5, Lee Cooper jeans, Indiage Max L
[19] = sample L6, Lee Cooper jeans, Indiage Super L
[20] = sample L7, Lee Cooper jeans, Ecostone CXP500 Exper.
[21] = sample L8, Lee Cooper jeans, Ecostone CXP experimental
[22] = sample L9, Lee Cooper jeans, Ecostone N400
[23] = sample T1, Tincan jeans, desized only
[24] = sample T2, Tincan jeans, Ecostone N400
[25] = sample T3, Tincan jeans, Ecostone L300
[26] = sample T4, Tincan jeans, Denimax 991S
[27] = sample W1, Warric jeans, desized only
[28] = sample W2, Warric jeans, Ecostone P4500
[29] = sample W3, Warric jeans, Indiage Max G
[30] = sample W4, Warric jeans, Ecostone NP2000
[31] = sample W5, Warric jeans, Ecostone L900
[32] = sample W6, Warric jeans, Denabraide MBL 65 E

Inhibition (%) of laccase rTaLcc1 ([1]; inhibitor 10 mM, ABTS as substrate): 5%
Inhibition(%) wt TaLcc1 ([2]; inhibitor 10 mM, 2 mM ABTS, 25 mM succinate buffer pH 4.5): 0%
Molecule: O=C(O)CN(CCN(CC(=O)O)CC(=O)O)CC(=O)O [EDTA]

Molecule: [Cl-].[Na+] [NaCl]
Inhibition (%) of laccase rTaLcc1 [1]: 0%
Inhibition(%) wt TaLcc1 ([2]; pH 4.5): 35% and 42%

Molecule: [N-]=[N+]=[N-].[Na+] [NaN3]
Inhibition (%) of laccase rTaLcc1 [1]: 95%

After laccase Treatment L* [3, 6]: 40.62
After laccase Treatment b* [3, 6]: -17.37
After laccase Treatment L* [3, 7]: 21.91
After laccase Treatment b* [3, 7]: -15.03
After laccase Treatment L* [3, 8]: 33.30
After laccase Treatment b* [3, 8]: -16.43
After laccase Treatment L* [3, 9]: 34.13
After laccase Treatment b* [3, 9]: -16.73
After laccase Treatment L* [3, 10]: 35.83
After laccase Treatment b* [3, 10]: -16.86
After laccase Treatment L* [3, 11]: 33.85
After laccase Treatment b* [3, 11]: -16.48
After laccase Treatment L* [3, 12]: 30.61
After laccase Treatment b* [3, 12]: -16.65
After laccase Treatment L* [3, 13]: 32.36
After laccase Treatment b* [3, 13]: -16.75
After laccase Treatment L* [3, 14]: 31.23
After laccase Treatment b* [3, 14]: -20.83
After laccase Treatment L* [3, 15]: 44.11
After laccase Treatment b* [3, 15]: -18.60
After laccase Treatment L* [3, 16]: 39.71
After laccase Treatment b* [3, 16]: -19.67
After laccase Treatment L* [3, 17]: 40.63
After laccase Treatment b* [3, 17]: -19.25
After laccase Treatment L* [3, 18]: 39.47
After laccase Treatment b* [3, 18]: -19.48
After laccase Treatment L* [3, 19]: 41.50
After laccase Treatment b* [3, 19]: -18.68
After laccase Treatment L* [3, 20]: 37.91
After laccase Treatment b* [3, 20]: -19.85
After laccase Treatment L* [3, 21]: 40.74
After laccase Treatment b* [3, 21]: -19.12
After laccase Treatment L* [3, 22]: 40.82
After laccase Treatment b* [3, 22]: -18.82
After laccase Treatment L* [3, 23]: 33.97
After laccase Treatment b* [3, 23]: -17.95
After laccase Treatment L* [3, 24]: 34.38
After laccase Treatment b* [3, 24]: -18.22
After laccase Treatment L* [3, 25]: 40.33
After laccase Treatment b* [3, 25]: -18.30
After laccase Treatment L* [3, 26]: 37.66
After laccase Treatment b* [3, 26]: -18.58
After laccase Treatment L* [3, 27]: 27.75
After laccase Treatment b* [3, 27]: -18.76
After laccase Treatment L* [3, 28]: 39.35
After laccase Treatment b* [3, 28]: -17.39
After laccase Treatment L* [3, 29]: 41.11
After laccase Treatment b* [3, 29]: -16.79
After laccase Treatment L* [3, 30]: 38.07
After laccase Treatment b* [3, 30]: -17.33
After laccase Treatment L* [3, 31]: 37.12
After laccase Treatment b* [3, 31]: -18.03
After laccase Treatment L* [3, 32]: 36.65
After laccase Treatment b* [3, 32]: -17.95
Molecule: OCl [sodium hypochlorite]
Increase of L* [3, 6]: 12.27
Increase of L* [3, 7]: 5.15
Increase of L* [3, 8]: 7.36
Increase of L* [3, 9]: 9.40
Increase of L* [3, 10]: 9.28
Increase of L* [3, 11]: 9.28
Increase of L* [3, 12]: 8.41
Increase of L* [3, 13]: 9.62
Increase of L* [3, 14]: 10.69
Increase of L* [3, 15]: 12.97
Increase of L* [3, 16]: 11.26
Increase of L* [3, 17]: 11.48
Increase of L* [3, 18]: 11.47
Increase of L* [3, 19]: 12.42
Increase of L* [3, 20]: 11.15
Increase of L* [3, 21]: 11.98
Increase of L* [3, 22]: 11.91
Increase of L* [3, 23]: 8.95
Increase of L* [3, 24]: 6.73
Increase of L* [3, 25]: 11.24
Increase of L* [3, 26]: 10.10
Increase of L* [3, 27]: 10.17
Increase of L* [3, 28]: 13.76
Increase of L* [3, 29]: 12.99
Increase of L* [3, 30]: 12.29
Increase of L* [3, 31]: 13.40
Increase of L* [3, 32]: 12.90

B1: Melanocarpus albomyces laccase MaL (Melanocarpus albomyces) (protein)
chain: EPTCNTPSNRACWSDGFDINTDYEVSTPDTGVTQSYVFNLTEVDNWMGPDGVVKEKVMLINGNIMGPNIVANWGDTVEVTVINNLVTNGTSIHWHGIHQKDTNLHDGANGVTECPIPPKGGQRTYRWRARQYGTSWYHSHFSAQYGNGVVGTIQINGPASLPYDIDLGVFPITDYYYRAADDLVHFTQNNAPPFSDNVLINGTAVNPNTGEGQYANVTLTPGKRHRLRILNTSTENHFQVSLVNHTMTVIAADMVPVNAMTVDSLFLAVGQRYDVVIDASRAPDNYWFNVTFGGQAACGGSLNPHPAAIFHYAGAPGGLPTDEGTPPVDHQCLDTLDVRPVVPRSVPVNSFVKRPDNTLPVALDLTGTPLFVWKVNGSDINVDWGKPIIDYILTGNTSYPVSDNIVQVDAVDQWTYWLIENDPEGPFSLPHPMHLHGHDFLVLGRSPDVPAASQQRFVFDPAVDLARLNGDNPPRRDTTMLPAGGWLLLAFRTDNPGAWLFHCHIAWHVSGGLSVDFLERPADLRQRISQEDEDDFNRVCDEWRAYWPTNPYPKIDSGL
Km [4]: 1.3 µM
kcat [4]: 78.5 s⁻¹
kcat/Km [4]: 6e+07 M⁻¹ s⁻¹
Km [5]: 5 µM
kcat [5]: 69.33 s⁻¹
kcat/Km [5]: 1.35e+07 M⁻¹ s⁻¹
